{"source": "patent US20210393586A1", "about": "“Compounds for Use in the Treatment of Bacterial Infections” (Universität Konstanz, priority 2018, published 2021)", "key": {"[1]": {"tested_on": "P. aeruginosa PAO1", "experiment": "Minimum inhibitory concentration, P. aeruginosa PAO1", "type": "cell-based", "details": "Pseudomonas aeruginosa; P. aeruginosa PAO1, LB, 24 h at 37° C.", "protocol": "(§1) An overnight culture of P. aeruginosa PAO1 or PA14 was diluted 1:1000 in LB media. Afterwards, 99 μL of bacterial suspension and 1 μL of a corresponding stock solution of the compound represented by Formula (2) in DMSO was added to each well of a sterile, round-bottom 96-well plate. The compound represented by Formula (2) was applied in final concentrations of 1000, 500, 100, 50, 10, 5, 1, 0.5, 0.1, 0.05 μM in triplicates. The plate was incubated for 24 h at 37° C. (180 rpm)."}, "[2]": {"tested_on": "P. aeruginosa PA14", "experiment": "Minimum inhibitory concentration, P. aeruginosa PA14", "type": "cell-based", "details": "Pseudomonas aeruginosa; P. aeruginosa PA14, LB, 24 h at 37° C.", "protocol": "as §1"}, "[3]": {"tested_on": "P. aeruginosa PA01", "experiment": "Bacterial growth curve analysis, P. aeruginosa PAO1", "type": "cell-based, Pseudomonas aeruginosa", "details": "concentrations up to 100 μM, 27 h at 37° C.", "protocol": "(§2) In a sterile 15 mL polypropylene centrifuge tubes with screw caps (Roth) 20 μL of a respective DMSO Stock of the compounds represented by Formulas (2) and (5), or 20 μL DMSO as vehicle control was added for 1% final DMSO concentration. Then, 2 mL of LB medium and 6 μL of an overnight culture of P. aeruginosa PA01 or PA14 was added per sample. The samples were incubated for 27 h at 37° C. (190 rpm). At indicated incubation times 50 μL LB medium and 50 μL of culture were transferred in a cuvette, mixed and the adsorption measured at 600 nm."}, "[4]": {"tested_on": "P. aeruginosa PA14", "experiment": "Bacterial growth curve analysis, P. aeruginosa PA14", "type": "cell-based, Pseudomonas aeruginosa", "details": "concentrations up to 100 μM, 27 h at 37° C.", "protocol": "as §2"}, "[5]": {"tested_on": "quinolone and phenazine production of P. aeruginosa PAO1", "experiment": "Quinolone and phenazine inhibition in P. aeruginosa PAO1 cultures, LC-MS/MS of supernatants", "type": "cell-based, Pseudomonas aeruginosa", "protocol": "(§3) A LC-MS/MS method was established using characteristic mass transitions for quantitative analysis of metabolites in the supernatants of P. aeruginosa (Table 1, FIGS. 13 to 15). A library of phenazines and synthetic AQs and AQNOs served as standards (Szamosvári, D.; Böttcher, T., Angew Chem Int Ed Engl 2017, 56 (25), 7271-7275). There were also analyzed phenazines, including phenazine-1-carboxamide (PHZ-CA), 1-hydroxyphenazine (1-OH-PHZ), and pyocyanin (PYO), which are produced as virulence factors partially under control of the PQS quorum sensing system (FIG. 16a).\n(§4) Ultra-high performance liquid chromatography was performed on a Dionex Ultimate 3000 UHPLC (Thermo Fisher Scientific, Waltham, Mass.) using a Nucleodur C18 Gravity-SB 150×2 mm, 3 μm column (Macherey-Nagel). The flow rate was 0.5 mL/min and the columns temperature was held at 40° C. The injection volume was 5 μL using pick up injection mode. Eluent A was 0.1% formic acid in water and eluent B was acetonitrile. The gradient was 20-100% B in 10 min, 100% B for 2 min, 100-20% B in 1 min and 20% B for 2 min. MS/MS analysis was performed by a Finnigan™ TSQ® Quantum (Thermo electron corporation) mass spectrometer in the SRM (Selected Reaction Monitoring) scan mode. As ion source a heated-electrospray ionization (HESI-II probe, Thermo scientific) was used. In the optimized conditions the ion spray voltage was 3500 V, vaporizer temperature 300° C., capillary temperature 380° C., sheath gas pressure 60 psi, ion sweep gas pressure 2 psi, aux gas 10 psi. The tube lens offset was 80 V and skimmer offset 0. Data were acquired in a mass range of m/z 130-350, and MS/MS acquisition of all compounds was performed in positive mode and fixed collision energy of 30 eV. Dwell time was 0.050 sec for all compounds.\nThe software Quan Browser Thermo Xcalibur 3.1.66.10 was used for quantitative analysis. The standard peak area of the product ions was fitted by linear regression versus the known concentrations to generate a standard curve.\nCultures of P. aeruginosa strains PAO1 and PA14 were incubated with different concentrations of the compound represented by Formula (2) for 24 h and extracted culture supernatants were used for LC-MS/MS analysis.\n10 μL of a respective DMSO stock solution of compound represented by Formula (2) or 10 μL DMSO as vehicle control (0.33% final DMSO concentration) was added to 3 mL LB medium in 15 mL polypropylene centrifuge tubes with screw caps (VWR) to obtain final concentrations of 10, 50 and 100 μM. Afterwards 10 μL of a P. aeruginosa PAO1 or PA14 overnight culture was added. The caps of the sample tubes were slightly opened and fixed in a defined position by tape to ensure equal oxygen delivery to all samples. […] (180 rpm). Afterwards, the samples were centrifuged and the supernatants sterile filtered. The inhibition assay was performed in 3-4 biological replicates.\n500 μL of sterile supernatant was transferred in 1.5 mL glass vials, 500 μL chloroform was added and vortexed thoroughly. Then, 200 μL of the organic layer was transferred in a clean 1.5 mL glass vial and the solvent evaporated by a gentle stream of nitrogen. The extract was stored at −80° C. until measurement. For analysis, 50 μL acetonitrile/water (1:1) was added to each sample.\nMeOH stock solutions of PQS, AQs, AQNOs and phenazines were prepared at 1 mg/mL in glass vials and stored at −80° C. A series of standard solutions was prepared freshly before LC-MS/MS analysis by serial dilutions of the stock solution of each analyte in acetonitrile/water (1:1)."}, "[6]": {"tested_on": "quinolone and phenazine production of P. aeruginosa PA14", "experiment": "Quinolone and phenazine inhibition in P. aeruginosa PA14 cultures, LC-MS/MS of supernatants", "type": "cell-based, Pseudomonas aeruginosa", "protocol": "as §3, §4\nThe software Quan Browser Thermo Xcalibur 3.1.66.10 was used for quantitative analysis. The standard peak area of the product ions was fitted by linear regression versus the known concentrations to generate a standard curve. […]"}, "[7]": {"biological_target": "T1, PqsD (Pseudomonas aeruginosa, UniProt P20582)", "T1 construct": "expressed in transfected cells; host or cells: E. coli BL21 containing pDEST/pqsD, induced with anhydrotetracyclin", "T1 sequence (P20582 whole entry)": "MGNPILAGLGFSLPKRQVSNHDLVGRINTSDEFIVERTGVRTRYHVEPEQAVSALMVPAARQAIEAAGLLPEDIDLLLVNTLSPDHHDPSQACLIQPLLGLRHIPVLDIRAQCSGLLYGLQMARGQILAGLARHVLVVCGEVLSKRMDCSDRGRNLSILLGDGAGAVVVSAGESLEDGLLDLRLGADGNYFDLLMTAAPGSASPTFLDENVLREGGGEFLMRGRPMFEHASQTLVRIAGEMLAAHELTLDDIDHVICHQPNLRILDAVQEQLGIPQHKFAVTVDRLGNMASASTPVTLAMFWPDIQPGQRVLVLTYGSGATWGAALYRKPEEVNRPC", "experiment": "Proteomic analysis of active site modification of PqsD after in situ inhibition", "type": "cell-based", "details": "PqsD inhibited in live E. coli cells, tryptic digest, LC-MS", "protocol": "In situ labelling was performed, and 2×SDS loading buffer was added directly to the resulting lysates. After SDS-PAGE and Coomassie staining, the protein band corresponding to PqsD was cut out of the gel. Then, tryptic digestion, sample preparation and LC-MS analysis were performed: Coomassie gel bands were washed in MilliQ for 15 sec, bands cut as close as possible and placed in Eppendorf tubes. For reduction and alkylation, a solution of 10 mM DTT in 50 mM NH4CO3 was added and incubated for 60 min at 56° C. The DTT solution was removed and a solution of 50 mM iodoacetamide in 50 mM NH4CO3 was added and incubated for 60 min at room temperature (rt). In a final washing step, the gel pieces were washed with 100 μL MilliQ water and 100 μL 50 mM NH4CO3 solution, then the solution was removed, and the gel dehydrated with acetonitrile/MilliQ water (3:2). The washing step was repeated until the gel pieces turned colorless. Next, the dehydration solution was removed, and acetonitrile was added for 10 sec before drying on air until complete dryness. The gel pieces were incubated for […] on ice in a freshly prepared cold buffer containing trypsin (10.0 ng/μL) and 50 mM NH4CO3. […] The combined washes and elutions were dried via SpeedVac and analyzed by an Orbitrap Fusion with EASY-nLC1200 instrument."}, "[8]": {"tested_on": "HHQ production of P. aeruginosa PAO1", "experiment": "2-ABA feeding of P. aeruginosa PAO1, HHQ quantified by LC-MS/MS", "type": "cell-based, Pseudomonas aeruginosa", "details": "P. aeruginosa PAO1 grown with 50 μM compound, 2-ABA total 12 mM, 11 h at 37° C.", "protocol": "10 μL of a 5 mM stock of the compound represented by Formula (2) in DMSO or 10 μL of DMSO as vehicle control (1% final DMSO concentration) was added in 1 mL LB medium in 15 mL polypropylene centrifugal tubes. Then, 5 μL P. aeruginosa PAO1 overnight culture was added and grown at 37° C. (190 rpm). Due to the instability of 2-ABA, it was added in six portions. After several time points (6 h, 6.5 h, 7 h, 7.5 h, 8 h and 10 h) the cultures treated with the compound represented by Formula (2) were supplemented with 20 μL 100 mM 2-ABA stock in basic solution (1% NH4OH) or 20 μL basic solution (1% NH4OH) as vehicle control. To investigate the effect of basic solution, the DMSO containing control samples were supplemented with same amounts of basic solution compared to treated samples. The total amount of 2-ABA added to each sample was 12 mM and the pH of the cultures after addition of the total volume of basic solution was under pH 8. After 11 h cultures were centrifuged, supernatants sterile filtered and HHQ extracted and quantified by LC-MS/MS according to the previously described protocol."}}}
{"smiles": "Nc1ccccc1C(=O)CCl", "note": "[Formula (2), 2′-amino-1-chloro-acetophenone]", "values": [{"measurement": "MIC", "setting": "[1]", "result": "> 1000", "unit": "µM"}, {"measurement": "MIC", "setting": "[2]", "result": "> 1000", "unit": "µM"}, {"measurement": "growth (OD 600 nm growth curve)", "setting": "[3]", "result": "largely unaffected"}, {"measurement": "growth (OD 600 nm growth curve)", "setting": "[4]", "result": "largely unaffected"}, {"measurement": "production of all major quorum sensing signals, PQS and the chain length congeners of HHQ", "setting": "[5]; P. aeruginosa PAO1, between 50 μM and 100 μM, 24 h", "result": "completely inhibited"}, {"measurement": "intensity of quinolones and phenazines (LC-MS/MS chromatograms)", "setting": "[5]; P. aeruginosa PAO1, increasing concentrations 10, 50, 100 μM, 24 h", "result": "considerably decreased"}, {"measurement": "IC50", "setting": "[5]; Pseudomonas aeruginosa, PAO1, 24 h, read-out: average IC50 for production of all major quorum sensing signals, PQS and the chain length congeners of HHQ", "result": "< 10", "unit": "µM"}, {"measurement": "production of quinolone N-oxide congeners incl. HQNO, NQNO and trans-Δ1-NQNO", "setting": "[5]; dose response manner, 10, 50, 100 μM, strain not given, 24 h", "result": "inhibited"}, {"measurement": "phenazine production (1-OH-PHZ, PHZ-CA, pyocyanin)", "setting": "[5]; strongest for 1-OH-PHZ and weakest for pyocyanin, strain not given, 24 h", "result": "down-regulation of phenazines"}, {"measurement": "production of all major quorum sensing signals, PQS and the chain length congeners of HHQ", "setting": "[6]; compared with PAO1 (complete inhibition between 50 μM and 100 μM), 24 h", "result": "slightly lesser degree"}, {"measurement": "intensity of quinolones and phenazines (LC-MS/MS chromatograms)", "setting": "[6]; increasing concentrations 10, 50, 100 μM, 24 h", "result": "considerably decreased"}, {"measurement": "site of covalent binding in PqsD (six cysteines in total)", "setting": "[7]", "result": "only bound to the active site cysteine (Cys112)"}, {"measurement": "HHQ production after external addition of 2-ABA to inhibited culture", "setting": "[8]", "result": "partially restored"}]}
{"smiles": "O=C(CCl)c1cccc2cc[nH]c12", "note": "[Formula (5)]", "values": [{"measurement": "growth (OD 600 nm growth curve)", "setting": "[3]", "result": "largely unaffected"}, {"measurement": "growth (OD 600 nm growth curve)", "setting": "[4]", "result": "largely unaffected"}, {"measurement": "inhibition of quinolone production", "setting": "[5]; P. aeruginosa PAO1, 100 μM, 27 h at 37° C. (FIG. 20a)", "result": "observed"}, {"measurement": "inhibition of quinolone production", "setting": "[6]; 100 μM, 27 h at 37° C. (FIG. 20b)", "result": "observed"}]}
